Source: publication PMC12716005, “Design, Synthesis, and Molecular Docking of Triazole‐Coumarin Hybrids as Potent Breast Cancer Inhibitors Targeting Cell Cycle and Apoptosis” (Chemistry & Biodiversity, 2025)

How the values were obtained:
[1] = test system: MCF‐10A human breast epithelial cells; test: MTT cell viability assay, MCF-10A; format: cell-based; settings: 72 h, non-tumorigenic cells
Procedure: (§1) Human cell lines, breast cancer MCF‐7 and MDA‐MB‐231, along with the human breast epithelial cell line (MCF‐10A), were purchased from ATCC (Rockville, USA). The necessary supplies, including fetal bovine serum (FBS), RPMI 1640 medium, 3‐(4,5‐dimethylthiazol‐2‐yl)‐2,5‐diphenyltetrazolium bromide (MTT), and DMSO, were provided by Merck (Darmstadt, Germany). The cells were maintained at 37°C in a CO2─enriched chamber, utilizing RPMI 1640 medium fortified with 10% FBS and 100 U/mL of penicillin/streptomycin [30].
(§2) Cell survival was evaluated using the MTT technique, which measures cellular redox activity. In metabolically active cells, MTT (3‐(4,5‐dimethylthiazol‐2‐yl)) is reduced to form an insoluble purple formazan. This formazan was solubilized, and its concentration was quantified by measuring optical density. MTT, sourced as a powder from Sigma, was made with phosphate‐buffered saline (PBS) in a 5 mM standard solution. The density at which cells were propagated was 10⁴ cells per well in 96‐well plates. Triazole‐coumarin hybrids were dissolved in DMSO, and varying concentrations (0.1–200 µM) of these derivatives were applied to the cells. Following treatment for 24, 48, and 72 h, 20 µL of the MTT mix was applied to each well, and the wells were then incubated for 4 h at thirty‐seven degrees in a CO2 incubator. After incubating, the formazan crystals were dissolved by adding 200 µL of DMSO after the MTT mixture was withdrawn. The absorption rate was recorded at 590 nm utilizing a Tecan spectrophotometer. Cisplatin served as the reference drug. […] To determine the selective toxicity of the triazole‐coumarin hybrids against breast cancer cells, the formula was used to compute the SI = IC50 for normal cells/IC50 for cancer cells.

[2] = test system: MDA‐MB‐231 breast cancer cells; test: MTT cell viability assay, MDA-MB-231; format: cell-based, human; settings: for IC50: MTT, 72 h
Procedure: as §1, §2

[3] = test system: MCF‐7 breast cancer cells; test: MTT cell viability assay, MCF-7; format: cell-based, human; settings: for IC50: MTT, 72 h
Procedure: as §1, §2

[4] = test system: MCF‐7; parameters: method as in PMID 30556027; settings: literature ref 28; cited from earlier work
[5] = test system: MCF‐7 breast cancer cells; test: Cell cycle analysis by flow cytometry (PI), MCF-7; format: cell-based, human; settings: 72 h
Procedure: (§3) In 24‐well plates, cells were introduced at a concentration of 5×10⁵ colonies per plate, and compound 5f was administered at its IC50 concentration for 72 h. The cell cycle phases were evaluated using the Cayman Cell Cycle Phase Determination Kit. Following treatment, applying cold PBS, cells were rinsed, trypsinized, and 5 min of centrifugation at 500 × g. The resulting pellets were resuspended in 250 µL of fixative and held at −20°C for 2 h. After a second centrifugation at 500 × g for 5 min, washing was carried out with PBS and stained with propidium iodide (PI) for 30 min at room temperature. Flow cytometric analysis of the cell cycle was implemented using a BD Accuri C6 flow cytometer, with detection wavelengths ranging from 488 to 650 nm.

[6] = test system: MDA‐MB‐231 breast cancer cells; test: Cell cycle analysis by flow cytometry (PI), MDA-MB-231; format: cell-based, human; settings: 72 h
Procedure: as §3

[7] = test system: Bcl─2 mRNA; test: qRT-PCR Bcl-2 mRNA in MCF-7; format: cell-based, human; settings: MCF-7, IC50 value of 5f, 72 h
Procedure: (§4) To figure out the mRNA levels of apoptosis‐related proteins B‐cell lymphoma 2 (Bcl─2), Bcl─2‐associated X protein (Bax), cyclin‐dependent kinase 2 (CDK2), and Cyclin E, total mRNA was extracted from cells treated with compound 5f using Trizol reagent (Sigma). Complementary DNA (cDNA) synthesis was conducted from total mRNA using a Qiagen cDNA synthesis kit as described by the manufacturer. The primers listed below (350 nM concentration) were utilized: Bcl─2; forward ([…]); reverse ([…]), Bax; forward ([…]); reverse ([…]), CDK2; forward ([…]); reverse (TGGCTGAAATCCGCTTGTT), Cyclin E; forward ([…]); reverse ([…]), human GAPDH; forward ([…]); reverse (AGATGGTGATGGGCTTCCC). The PCR reaction mixture consisted of 1X buffer, 0.2 mM dNTPs, 1.6 mM MgCl2, 50 pmol of primer sets, cDNA, and 0.25 U of Taq polymerase. The thermal cycling conditions included an initial denaturation at 95°C for 60 s, followed by 50 cycles comprising 15 s of denaturation at 95°C, 15 s of annealing at 60°C, and 60 s of extension at 72°C. The median CT value of GAPDH, the naturally present housekeeping gene, was utilized to normalize the cycle threshold (CT) values. Levels of compared transcription were established using the comparative ^ΔΔCT method.

[8] = test system: Bax mRNA; test: qRT-PCR Bax mRNA in MCF-7; format: cell-based, human; settings: MCF-7, IC50 value of 5f, 72 h
Procedure: as §4

[9] = test system: Bcl─2 mRNA; test: qRT-PCR Bcl-2 mRNA in MDA-MB-231; format: cell-based, human; settings: MDA-MB-231, IC50 value of 5f, 72 h
Procedure: as §4

[10] = test system: Bax mRNA; test: qRT-PCR Bax mRNA in MDA-MB-231; format: cell-based, human; settings: MDA-MB-231, IC50 value of 5f, 72 h
Procedure: as §4

[11] = test system: MCF‐7 breast cancer cells; test: DNA fragmentation (Cell Death Detection kit), MCF-7; format: cell-based, human; settings: 72 h, p < 0.05
Procedure: (§5) As an apoptotic signature, DNA fragmentation was evaluated using the Cell Death Detection kit (Sigma). In 96‐well plates, cancerous cells were cultivated at a density of 1×10⁵ cells per well, and compound 5f was applied at its IC50 concentration for 72 h. In brief, 20 µL of cell lysates were transferred to streptavidin‐coated wells preloaded with anti‐DNA antibodies and held at RT for 2 h. Three washes afterward with the provided washing buffer, 2,2‐azino‐di‐(3‐ethylbenzthiazoline sulfonate) diammonium salt was put into every well. Absorbance was determined at 405 nm employing a spectrophotometer.

[12] = test system: MDA‐MB‐231 breast cancer cells; test: DNA fragmentation (Cell Death Detection kit), MDA-MB-231; format: cell-based, human; settings: 72 h, p < 0.05
Procedure: as §5

[13] = SI = IC50 for normal cells (MCF-10A)/IC50 for cancer cells

SMILES: N.N.[Cl][Pt][Cl] [Cisplatin, cisplatin, reference compound]
- IC50 [1]: 12.2 ± 0.8 µM
- IC50 [2]: 8.7 ± 0.6 µM
- IC50 [3]: 9.3 ± 1.2 µM

SMILES: Cc1n[nH]c(=O)n1NC(=O)c1cc2c(ccc3ccccc32)oc1=O [Derivative 5a, N‐(3‐Methyl‐5‐oxo‐1,5‐dihydro‐4H‐1,2,4‐triazol‐4‐yl)‐3‐oxo‐3H‐benzo[f]chromene‐2‐carboxamide]
- IC50 ([1]; Homo sapiens, MCF-10A): 12.5 ± 1 µM
- IC50 ([2]; Homo sapiens, MDA-MB-231, 72 h): 18.4 ± 1.16 µM
- IC50 ([3]; Homo sapiens, MCF7, 72 h): 22.5 ± 1.8 µM

SMILES: CCc1n[nH]c(=O)n1NC(=O)c1cc2c(ccc3ccccc32)oc1=O [Derivative 5b, N‐(3‐Ethyl‐5‐oxo‐1,5‐dihydro‐4H‐1,2,4‐triazol‐4‐yl)‐3‐oxo‐3H‐benzo[f]chromene‐2‐carboxamide]
- IC50 ([1]; Homo sapiens, MCF-10A): 25.2 ± 1.5 µM
- IC50 ([2]; Homo sapiens, MDA-MB-231, 72 h): 95.8 ± 2.4 µM
- IC50 ([3]; Homo sapiens, MCF7, 72 h): 76.6 ± 2.1 µM
- apoptotic effect in MCF‐7 [4]: altered the mitochondrial membrane potential in MCF‐7, causing apoptotic cell death

SMILES: O=C(Nn1c(-c2ccccc2)n[nH]c1=O)c1cc2c(ccc3ccccc32)oc1=O [Derivative 5c, 3‐Oxo‐N‐(5‐oxo‐3‐phenyl‐1,5‐dihydro‐4H‐1,2,4‐triazol‐4‐yl)‐3H‐benzo[f]chromene‐2‐carboxamide]
- IC50 ([1]; Homo sapiens, MCF-10A): 62.8 ± 0.4 µM
- IC50 ([2]; Homo sapiens, MDA-MB-231, 72 h): 64 ± 1.4 µM
- IC50 ([3]; Homo sapiens, MCF7, 72 h): 25.9 ± 0.8 µM

SMILES: O=C(Nn1c(Cc2ccccc2)n[nH]c1=O)c1cc2c(ccc3ccccc32)oc1=O [Derivative 5d, N‐(3‐Benzyl‐5‐oxo‐1,5‐dihydro‐4H‐1,2,4‐triazol‐4‐yl)‐3‐oxo‐3H‐benzo[f]chromene‐2‐carboxamide]
- IC50 ([1]; Homo sapiens, MCF-10A): 38.2 ± 0.7 µM
- IC50 ([2]; Homo sapiens, MDA-MB-231, 72 h): 87 ± 2 µM
- IC50 ([3]; Homo sapiens, MCF7, 72 h): 49.8 ± 2.2 µM

SMILES: Cc1ccc(Cc2n[nH]c(=O)n2NC(=O)c2cc3c(ccc4ccccc43)oc2=O)cc1 [Derivative 5e, N‐(3‐(4‐Methylbenzyl)‐5‐oxo‐1,5‐dihydro‐4H‐1,2,4‐triazol‐4‐yl)‐3‐oxo‐3H‐benzo[f]chromene‐2‐carboxamide]
- IC50 ([1]; Homo sapiens, MCF-10A): 40.6 ± 2.1 µM
- IC50 ([2]; Homo sapiens, MDA-MB-231, 72 h): 61.7 ± 0.4 µM
- IC50 ([3]; Homo sapiens, MCF7, 72 h): 68.9 ± 3.1 µM

SMILES: O=C(Nn1c(Cc2ccc(Cl)cc2)n[nH]c1=O)c1cc2c(ccc3ccccc32)oc1=O [Derivative 5f, N‐(3‐(4‐Chlorobenzyl)‐5‐oxo‐1,5‐dihydro‐4H‐1,2,4‐triazol‐4‐yl)‐3‐oxo‐3H‐benzo[f]chromene‐2‐carboxamide]
- IC50 ([1]; Homo sapiens, MCF-10A): 61.9 ± 0.6 µM
- IC50 ([2]; Homo sapiens, MDA-MB-231, 72 h): < 25 µM
- IC50 [2]: 15.7 ± 0.2 µM
- selectivity index (SI) MDA‐MB‐231 [2, 13]: 3.9
- IC50 ([3]; Homo sapiens, MCF7, 72 h): < 25 µM
- IC50 [3]: 22.1 ± 0.42 µM
- selectivity index (SI) MCF‐7 [3, 13]: 2.8
- Cell cycle kinetics, M ([5]; MCF-7, IC50 value of 5f): 22.9
- Cell cycle kinetics, S ([5]; MCF-7, IC50 value of 5f): 36.1
- phase of cell cycle block ([5]; MCF-7, IC50 value): S phase
- Cell cycle kinetics, G0/G1 ([6]; MDA-MB-231, IC50 value of 5f): 0.8
- Cell cycle kinetics, M ([6]; MDA-MB-231, IC50 value of 5f): 20.0
- Cell cycle kinetics, S ([6]; MDA-MB-231, IC50 value of 5f): 36.6
- phase of cell cycle block ([6]; MDA-MB-231, IC50 value): S phase
- Bcl─2 mRNA level, downregulated [7]: 2.1 fold
- Bax mRNA level, upregulated [8]: 2.35 fold
- Bcl─2 mRNA level, downregulated [9]: 3.1 fold
- Bax mRNA level, upregulated [10]: 2.35 fold
- DNA fragmentation induction ([11]; MCF-7, 1 µM): 1.65 fold
- DNA fragmentation induction ([11]; MCF-7, 10 µM): 3 fold
- DNA fragmentation induction ([11]; MCF-7, 50 µM): 4.1 fold
- DNA fragmentation induction ([12]; MDA-MB-231, 1 µM): 1.7 fold
- DNA fragmentation induction ([12]; MDA-MB-231, 10 µM): 2.15 fold
- DNA fragmentation induction ([12]; MDA-MB-231, 50 µM): 4.15 fold
